# Test results reported in US4318858A, “Thioethylamide derivatives” (Shionogi & Co., Ltd., priority 1979, dated 1982).
# Like-named read-outs stand apart in the source and are kept apart here.
# Columns and labels:
# histamine H2 receptor = target: T1, histamine H2 receptor (Cavia porcellus, UniProt P47747); experiment: inhibition of the palpitation number of guinea pig's enucleated atrium (histamine antagonism); type: cell-based; details: compounds (I) as the oxalates
# T1 construct: guinea pig's enucleated atrium; from tissue; host or cells: guinea pig isolated ("enucleated") atrium
# Excerpt: The pA2 value is defined as a negative logarithm of the concentratio
# of the compound (I) required to shift the doseresponse of histamine to th
# high concentration side by 2fold. [Ariens, E.J., Molecular Pharmacology,
# (1964), Academic Press, New York and London].
# acute toxicity in mice = details: mouse, in vivo, oxalate
# gastric acid secretion = gastric acid secretion inhibiting activity in Donryu male rats (pH value in the stomach); type: in vivo; details: Rattus norvegicus, oxalate
# T1 sequence (P47747 whole entry): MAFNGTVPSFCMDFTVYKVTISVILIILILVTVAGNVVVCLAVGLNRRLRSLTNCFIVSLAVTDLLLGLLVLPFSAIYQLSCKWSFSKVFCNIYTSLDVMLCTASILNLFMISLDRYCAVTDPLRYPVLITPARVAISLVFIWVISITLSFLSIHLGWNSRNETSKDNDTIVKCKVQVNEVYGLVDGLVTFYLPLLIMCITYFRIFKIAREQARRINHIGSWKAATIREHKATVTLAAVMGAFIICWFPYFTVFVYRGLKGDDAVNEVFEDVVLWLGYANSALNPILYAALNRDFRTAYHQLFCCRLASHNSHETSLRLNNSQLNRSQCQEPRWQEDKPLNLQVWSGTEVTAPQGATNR
Kb (histamine H2 receptor),Compound,also measured
912 nM,O=C(NCCSCc1ccc(CN2CCCC2)s1)c1ccc([N+](=O)[O-])cc1 [Test No. 9],
468 nM,COC(=O)c1ccc(C(=O)NCCSCc2ccc(CN(C)C)o2)cc1 [Test No. 4],
,CN(C)Cc1ccc(CSCCNC(=O)c2ccc(S(N)(=O)=O)cc2)o1.O=C(O)C(=O)O [N-[2-[[(5-dimethylaminomethyl-2-furyl)-methyl]thio]ethyl]-4-sulfamoylbenzamide oxalate],"LD50 (acute toxicity in mice; iv, read-out: acute toxicity LD50 i.v.): 150 mg/kg; LD50 (acute toxicity in mice; po, read-out: acute toxicity LD50 p.o.): > 1000 mg/kg; ED50 (gastric acid secretion): 2.54 mg/kg"
851 nM,Cc1cc(CSCCNC(=O)c2ccc([N+](=O)[O-])cc2)oc1CN1CCCC1 [Test No. 12],
1910 nM,CC=CC=CC(=O)NCCSCc1ccc(CN(C)C)o1 [Test No. 5],
550 nM,COC(=O)c1ccc(C(=O)NCCSCc2ccc(CN3CCCC3)s2)cc1,
501 nM,CC(C)c1cc(CN2CCCC2)sc1CSCCNC(=O)c1cccnc1 [Test No. 11],
2190 nM,Cc1cc(CSCCNC(=O)c2ccc(S(N)(=O)=O)cc2)sc1CN1CCCC1 [Test No. 10],
1860 nM,CN(C)Cc1ccc(CSCCNC=O)o1 [Test No. 6],

Compound,Kb (histamine H2 receptor),also measured
CN(C)Cc1ccc(CSCCNC(=O)c2ccc(S(N)(=O)=O)cc2)o1 [Test No. 7],151 nM,
